Laboratory results taken from publication PMC12341765, “Microenvironment-triggered multimodal precision diagnostics” (Nature materials, 2021).

Experiments:
[1] = tested on: MC26 CRC lung tumors; assay: 5-FU treatment of CRC lung disease model, monitored with PRISM (urine, PET-CT); assay type: in vivo, BALB/c mice; conditions: 5-FU 15 mg/kg i.p.
Protocol: 5-Fluorouracil (5-FU) was purchased (Sigma-Aldrich) and prepared as previously described.[47] 5-FU or vehicle control (DMSO) was administered by intraperitoneal injection at in a 0.2 mL volume starting 1 week after cell injection for metastasis-initiation experiments. A 15 mg/kg dose per treatment was used for all experiments. […] Experimental group sizes were practically associated according to the number of mice housed per cage (n=5 mice per cage). […] Tumor-bearing mice were closely monitored and euthanized following health-check advice given by an independent veterinary scientist responsible for animal welfare. […] Reconstructed PET and CT data were quantitatively evaluated using VivoQuant software (inviCRO Inc.). […] The radioactivity uptake values within CT-drawn organs were obtained from mean voxel values within the ROI and converted to percentage injected dose (ID) and then divided by mouse weight (g) to obtain an imaging ROI-derived percentage of the injected radioactive dose per gram of tissue (%ID/g). […] The tumor (or tissue) to tissue (i.e. lung to liver) ratio was calculated by dividing the mean lung by the mean liver %ID/g values. To quantify the radioactivity in diseased tissues ex vivo, tissues were harvested after perfusion with PBS and counts were collected using a 2480 WIZARD2 gamma counter (Perkin Elmer Inc.). […]

[2] = tested on: MC26 CRC lung tumors; conditions: mouse, in vivo
[3] = tested on: LS 174T tumors; assay: PET-CT imaging of low glucose uptake subcutaneous xenografts; parameters: species or system NCr nude mice; conditions: mouse, in vivo

Row | Structure (SMILES) | relative lung/liver ratio of PET-CT signal, no-treatment cohort versus cohort treated with chemotherapy ([1]; two weeks of treatment, 64Cu-PRISM PET-CT) | effect on tumor progression compared with non-treated cohort ([1]; urinary reporter signal and PET imaging, after a single week) | background signal in the chest / heart accumulation on PET-CT [2] | tumor uptake versus background tissue [3]
1 | O=c1[nH]cc(F)c(=O)[nH]1 [5-FU, 5-Fluorouracil] | over 3 times | significantly inhibited tumor progression | – | –
2 | OC[C@H]1OC(O)[C@H](F)[C@@H](O)[C@@H]1O (stereo partly shown) [18F-FDG, 18F-2-deoxyfluoroglucose] | – | – | strong accumulation in the heart | indistinguishable from the background tissue
